Results as given in patent publication US12187773B2, “Modified GIP peptide analogues” (Antag Therapeutics ApS, priority 2018, dated 2025).
*1 amine or outer side, *2 acyl side, *3 side chain or, on linkers, in order; H or OH if unused. Where a SMILES comes first, the peptide text is derived from it. Side-chain parts run from the residue outwards. The star is where a group is joined. C16 diacid = O=C(O)CCCCCCCCCCCCCCC(=O)*; γGlu = O=C(O)[C@H](CCC(=O)[*:2])N[*:1]; AEEA = NCCOCCOCC(=O)O

Tests used:
Format in all cases: cell-based
human GIP receptor [1] = target: T1, human GIP receptor (Homo sapiens, UniProt P48546); experiment: cAMP antagonism (CisBio cAMP Dynamic 2 HTRF assay); design: pCMV-Script vector; details: Table 1C, CisBio, HEK-293 cells; for IC50: cAMP antagonism, nM (IC50), agonist GIP1-42 at EC50
T1 sequence (P48546 22-466): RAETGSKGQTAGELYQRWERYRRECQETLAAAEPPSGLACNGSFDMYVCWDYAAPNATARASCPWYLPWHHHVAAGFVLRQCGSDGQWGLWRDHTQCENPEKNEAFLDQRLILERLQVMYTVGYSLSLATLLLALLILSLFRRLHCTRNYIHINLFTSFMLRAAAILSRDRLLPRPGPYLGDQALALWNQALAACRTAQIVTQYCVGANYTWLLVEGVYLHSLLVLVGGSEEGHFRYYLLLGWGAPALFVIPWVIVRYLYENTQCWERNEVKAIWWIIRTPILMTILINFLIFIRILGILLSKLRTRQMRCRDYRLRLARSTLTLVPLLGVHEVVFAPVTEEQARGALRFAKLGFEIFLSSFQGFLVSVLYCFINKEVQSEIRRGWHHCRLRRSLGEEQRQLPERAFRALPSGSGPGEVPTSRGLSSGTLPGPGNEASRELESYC
How it was run: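 Four-parameter fits of cAMP dose-response gave pIC50. cAMP fall was quantified by HTRF competition, ratio 665/620 nm after 60 min at room temperature, against a cAMP standard curve.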

human GIP receptor [2] = target: T1, human GIP receptor; experiment: cAMP accumulation, antagonism (DiscoveRx HitHunter cAMP XS assay); design: host or cells: COS-7 (transient, calcium phosphate; pCMV-Script vector); details: Table 1B, DiscoveRx; for cAMP antagonism, % inhib: COS-7 cells, % inhibition of Emax; for IC50: cAMP antagonism, nM (IC50), transiently transfected COS-7 cells
How it was run: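 Transiently transfected COS-7 cells expressing human GIP receptor, pretreated with 1 mM IBMX in HBS 30 min at 37 °C. Agonism: ligand 30 min at 37 °C; antagonism: 10 min antagonist preincubation, then GIP at 50-80% maximal response for 20 min. cAMP measured by HitHunter cAMP XS.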

human GIP receptor [3] = target: T1, human GIP receptor; experiment: cAMP agonism (CisBio cAMP Dynamic 2 HTRF assay); details: HEK293, read-out: cAMP agonism, % Efficacy, Table 1C, HEK-293 cells
Method: To test for agonistic properties at the GIP receptor, compounds were diluted and added to cells as described above and incubated for 30 min at 37° C. The resulting increase in intracellular cAMP was determined using the CisBio cAMP Dynamic 2 HTRF Assay Kit as described above.

human GIP receptor [4] = target: T1, human GIP receptor; experiment: cAMP accumulation, agonism (DiscoveRx HitHunter cAMP XS assay); design: host or cells: COS-7 (transient, calcium phosphate; pCMV-Script vector); details: Table 1B; DiscoveRx; COS-7 cells
How it was run: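 cAMP accumulation measured by HitHunter cAMP XS in COS-7 cells transiently expressing human GIP receptor, after 30 min in HBS with 1 mM IBMX at 37 °C. Antagonists preincubated 10 min before GIP giving 50-80% of maximum, then 20 min more; agonist mode used 30 min ligand exposure.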

SMILES	cAMP antagonism, % inhib (human GIP receptor [1]) [%]	cAMP antagonism, % inhib (human GIP receptor [2]) [%]	IC50 (human GIP receptor [2]) [nM]	Emax (human GIP receptor [3]) [%]	cAMP agonism, Emax (human GIP receptor [4])	IC50 (human GIP receptor [1]) [nM]
CC[C@H](C)[C@H](NC(=O)[C@H](CO)NC(=O)[C@H](Cc1ccc(O)cc1)NC(=O)[C@H](CC(=O)O)NC(=O)[C@H](CO)NC(=O)[C@@H](NC(=O)[C@H](Cc1ccccc1)NC(=O)[C@@H](NC(=O)CNC(=O)[C@@H]1CCCN1)[C@@H](C)O)[C@@H](C)CC)C(=O)N[C@@H](C)C(=O)N[C@@H](CCSC)C(=O)N[C@@H](CC(=O)O)C(=O)N[C@@H](CCCNC(=N)N)C(=O)N[C@H](C(=O)N[C@@H](CCCCNC(=O)CC[C@H](NC(=O)CCCCCCCCCCCCCCC(=O)O)C(=O)O)C(=O)N[C@@H](CCC(N)=O)C(=O)N[C@@H](CCC(N)=O)C(=O)N[C@@H](CC(=O)O)C(=O)N[C@@H](Cc1ccccc1)C(=O)N[C@H](C(=O)N[C@@H](CC(N)=O)C(=O)N[C@@H](Cc1c[nH]c2ccccc12)C(=O)N[C@@H](CC(C)C)C(=O)N[C@@H](CC(C)C)C(=O)N[C@@H](C)C(=O)N[C@@H](CCC(N)=O)C(=O)N[C@@H](CCCNC(=N)N)C(N)=O)C(C)C)[C@@H](C)CC [AT506] (HELM PEPTIDE1{P.G.T.F.I.S.D.Y.S.I.A.M.D.R.I.K.Q.Q.D.F.V.N.W.L.L.A.Q.R.[am]}|PEPTIDE2{[O=C(O)CCCCCCCCCCCCCCC(=O)[*:2]].[gGlu]}$PEPTIDE1,PEPTIDE2,16:R3-2:R2$$$V2.0; N-terminus assumed)	78	90	91	5	No Agonism	–
CC[C@H](C)[C@H](NC(=O)[C@H](CO)NC(=O)[C@H](Cc1ccc(O)cc1)NC(=O)[C@H](CC(=O)O)NC(=O)[C@H](CO)NC(=O)[C@@H](NC(=O)[C@H](Cc1ccccc1)NC(=O)[C@@H](NC(=O)CNC(=O)CN)[C@@H](C)O)[C@@H](C)CC)C(=O)N[C@@H](C)C(=O)N[C@@H](CCSC)C(=O)N[C@@H](CC(=O)O)C(=O)N[C@@H](CCCNC(=N)N)C(=O)N[C@H](C(=O)N[C@@H](CCCCNC(=O)COCCOCCNC(=O)CC[C@H](NC(=O)CCCCCCCCCCCCCCC(=O)O)C(=O)O)C(=O)N[C@@H](CCC(N)=O)C(=O)N[C@@H](CCC(N)=O)C(=O)N[C@@H](CC(=O)O)C(=O)N[C@@H](Cc1ccccc1)C(=O)N[C@H](C(=O)N[C@@H](CC(N)=O)C(=O)N[C@@H](Cc1c[nH]c2ccccc12)C(=O)N[C@@H](CC(C)C)C(=O)N[C@@H](CC(C)C)C(=O)N[C@@H](C)C(=O)N[C@@H](CCC(N)=O)C(=O)N[C@@H](CCCNC(=N)N)C(N)=O)C(C)C)[C@@H](C)CC [AT508] (HELM PEPTIDE1{G.G.T.F.I.S.D.Y.S.I.A.M.D.R.I.K.Q.Q.D.F.V.N.W.L.L.A.Q.R.[am]}|PEPTIDE2{[O=C(O)CCCCCCCCCCCCCCC(=O)[*:2]].[gGlu].[O=C(COCCOCCN[*:1])[*:2]]}$PEPTIDE1,PEPTIDE2,16:R3-3:R2$$$V2.0; N-terminus assumed)	89	100	23	0	No Agonism	–
CC[C@H](C)[C@H](NC(=O)[C@H](CO)NC(=O)[C@H](Cc1ccc(O)cc1)NC(=O)[C@H](CC(=O)O)NC(=O)[C@H](CO)NC(=O)[C@@H](NC(=O)[C@H](Cc1ccccc1)NC(=O)[C@@H](NC(=O)CNC(=O)[C@@H](N)CO)[C@@H](C)O)[C@@H](C)CC)C(=O)N[C@@H](C)C(=O)N[C@@H](CCSC)C(=O)N[C@@H](CC(=O)O)C(=O)N[C@@H](CCCNC(=N)N)C(=O)N[C@H](C(=O)N[C@@H](CCCCNC(=O)COCCOCCNC(=O)CC[C@H](NC(=O)CCCCCCCCCCCCCCC(=O)O)C(=O)O)C(=O)N[C@@H](CCC(N)=O)C(=O)N[C@@H](CCC(N)=O)C(=O)N[C@@H](CC(=O)O)C(=O)N[C@@H](Cc1ccccc1)C(=O)N[C@H](C(=O)N[C@@H](CC(N)=O)C(=O)N[C@@H](Cc1c[nH]c2ccccc12)C(=O)N[C@@H](CC(C)C)C(=O)N[C@@H](CC(C)C)C(=O)N[C@@H](C)C(=O)N[C@@H](CCC(N)=O)C(=O)N[C@@H](CCCNC(=N)N)C(N)=O)C(C)C)[C@@H](C)CC [AT510] (HELM PEPTIDE1{S.G.T.F.I.S.D.Y.S.I.A.M.D.R.I.K.Q.Q.D.F.V.N.W.L.L.A.Q.R.[am]}|PEPTIDE2{[O=C(O)CCCCCCCCCCCCCCC(=O)[*:2]].[gGlu].[O=C(COCCOCCN[*:1])[*:2]]}$PEPTIDE1,PEPTIDE2,16:R3-3:R2$$$V2.0; N-terminus assumed)	87	100	–	2	No Agonism	58.4
CC[C@H](C)[C@H](NC(=O)[C@H](CO)NC(=O)[C@H](Cc1ccc(O)cc1)NC(=O)[C@H](CC(=O)O)NC(=O)[C@H](CO)NC(=O)[C@@H](NC(=O)[C@H](Cc1ccccc1)NC(=O)[C@@H](NC(=O)CNC(=O)[C@@H]1CCCN1)[C@@H](C)O)[C@@H](C)CC)C(=O)N[C@@H](C)C(=O)N[C@@H](CCSC)C(=O)N[C@@H](CC(=O)O)C(=O)N[C@@H](CCCNC(=N)N)C(=O)N[C@H](C(=O)N[C@@H](CCCCNC(=O)COCCOCCNC(=O)CC[C@H](NC(=O)CCCCCCCCCCCCCCC(=O)O)C(=O)O)C(=O)N[C@@H](CCC(N)=O)C(=O)N[C@@H](CCC(N)=O)C(=O)N[C@@H](CC(=O)O)C(=O)N[C@@H](Cc1ccccc1)C(=O)N[C@H](C(=O)N[C@@H](CC(N)=O)C(=O)N[C@@H](Cc1c[nH]c2ccccc12)C(=O)N[C@@H](CC(C)C)C(=O)N[C@@H](CC(C)C)C(=O)N[C@@H](C)C(=O)N[C@@H](CCC(N)=O)C(=O)N[C@@H](CCCNC(=N)N)C(N)=O)C(C)C)[C@@H](C)CC [AT512] (HELM PEPTIDE1{P.G.T.F.I.S.D.Y.S.I.A.M.D.R.I.K.Q.Q.D.F.V.N.W.L.L.A.Q.R.[am]}|PEPTIDE2{[O=C(O)CCCCCCCCCCCCCCC(=O)[*:2]].[gGlu].[O=C(COCCOCCN[*:1])[*:2]]}$PEPTIDE1,PEPTIDE2,16:R3-3:R2$$$V2.0; N-terminus assumed)	73	80	–	0	No Agonism	79.4
CC[C@H](C)[C@H](NC(=O)[C@H](CO)NC(=O)[C@H](Cc1ccc(O)cc1)NC(=O)[C@H](CC(=O)O)NC(=O)[C@H](CO)NC(=O)[C@@H](NC(=O)[C@H](Cc1ccccc1)NC(=O)[C@@H](NC(=O)CNC(=O)CN)[C@@H](C)O)[C@@H](C)CC)C(=O)N[C@@H](C)C(=O)N[C@@H](CCSC)C(=O)N[C@@H](CC(=O)O)C(=O)N[C@@H](CCCNC(=N)N)C(=O)N[C@H](C(=O)N[C@@H](CCCCNC(=O)COCCOCCNC(=O)COCCOCCNC(=O)CC[C@H](NC(=O)CCCCCCCCCCCCCCC(=O)O)C(=O)O)C(=O)N[C@@H](CCC(N)=O)C(=O)N[C@@H](CCC(N)=O)C(=O)N[C@@H](CC(=O)O)C(=O)N[C@@H](Cc1ccccc1)C(=O)N[C@H](C(=O)N[C@@H](CC(N)=O)C(=O)N[C@@H](Cc1c[nH]c2ccccc12)C(=O)N[C@@H](CC(C)C)C(=O)N[C@@H](CC(C)C)C(=O)N[C@@H](C)C(=O)N[C@@H](CCC(N)=O)C(=O)N[C@@H](CCCNC(=N)N)C(N)=O)C(C)C)[C@@H](C)CC [AT514] (H-GGTFISDYSIAMDRIK([AEEA-AEEA-γGlu-C16 diacid])QQDFVNWLLAQR-NH2; N-terminus assumed)	86	80	–	0	No Agonism	31.6
